Test results published in ChEMBL document CHEMBL4673385, “Discovery of Potent Inhibitors of Streptococcus mutans Biofilm with Antivirulence Activity” (ACS Med Chem Lett, 2021).
Values after ≈ are worked out from the molar mass of the structure shown. Active and inactive are the calls of the source. No cut-off for these calls is given here.

Tests used:
[1] = Solubility of compound in water; type: physicochemical; settings: water; read-out: solubility
[2] = system: Streptococcus mutans; assay: Antibiofilm activity against Streptococcus mutans UA159 assessed as inhibition of biofilm formation by serial dilution method; type: functional, organism-based; settings: Streptococcus mutans, UA159; read-out: IC50
[3] = target: T1, Glucosyltransferase-I (Streptococcus mutans serotype c (strain ATCC 700610 / UA159)) (UniProt P08987); assay: Inhibition of GtfB in Streptococcus mutans UA159 assessed as reduction in glucans level by Coomassie blue dye based SDS-PAGE analysis
T1 sequence (whole entry): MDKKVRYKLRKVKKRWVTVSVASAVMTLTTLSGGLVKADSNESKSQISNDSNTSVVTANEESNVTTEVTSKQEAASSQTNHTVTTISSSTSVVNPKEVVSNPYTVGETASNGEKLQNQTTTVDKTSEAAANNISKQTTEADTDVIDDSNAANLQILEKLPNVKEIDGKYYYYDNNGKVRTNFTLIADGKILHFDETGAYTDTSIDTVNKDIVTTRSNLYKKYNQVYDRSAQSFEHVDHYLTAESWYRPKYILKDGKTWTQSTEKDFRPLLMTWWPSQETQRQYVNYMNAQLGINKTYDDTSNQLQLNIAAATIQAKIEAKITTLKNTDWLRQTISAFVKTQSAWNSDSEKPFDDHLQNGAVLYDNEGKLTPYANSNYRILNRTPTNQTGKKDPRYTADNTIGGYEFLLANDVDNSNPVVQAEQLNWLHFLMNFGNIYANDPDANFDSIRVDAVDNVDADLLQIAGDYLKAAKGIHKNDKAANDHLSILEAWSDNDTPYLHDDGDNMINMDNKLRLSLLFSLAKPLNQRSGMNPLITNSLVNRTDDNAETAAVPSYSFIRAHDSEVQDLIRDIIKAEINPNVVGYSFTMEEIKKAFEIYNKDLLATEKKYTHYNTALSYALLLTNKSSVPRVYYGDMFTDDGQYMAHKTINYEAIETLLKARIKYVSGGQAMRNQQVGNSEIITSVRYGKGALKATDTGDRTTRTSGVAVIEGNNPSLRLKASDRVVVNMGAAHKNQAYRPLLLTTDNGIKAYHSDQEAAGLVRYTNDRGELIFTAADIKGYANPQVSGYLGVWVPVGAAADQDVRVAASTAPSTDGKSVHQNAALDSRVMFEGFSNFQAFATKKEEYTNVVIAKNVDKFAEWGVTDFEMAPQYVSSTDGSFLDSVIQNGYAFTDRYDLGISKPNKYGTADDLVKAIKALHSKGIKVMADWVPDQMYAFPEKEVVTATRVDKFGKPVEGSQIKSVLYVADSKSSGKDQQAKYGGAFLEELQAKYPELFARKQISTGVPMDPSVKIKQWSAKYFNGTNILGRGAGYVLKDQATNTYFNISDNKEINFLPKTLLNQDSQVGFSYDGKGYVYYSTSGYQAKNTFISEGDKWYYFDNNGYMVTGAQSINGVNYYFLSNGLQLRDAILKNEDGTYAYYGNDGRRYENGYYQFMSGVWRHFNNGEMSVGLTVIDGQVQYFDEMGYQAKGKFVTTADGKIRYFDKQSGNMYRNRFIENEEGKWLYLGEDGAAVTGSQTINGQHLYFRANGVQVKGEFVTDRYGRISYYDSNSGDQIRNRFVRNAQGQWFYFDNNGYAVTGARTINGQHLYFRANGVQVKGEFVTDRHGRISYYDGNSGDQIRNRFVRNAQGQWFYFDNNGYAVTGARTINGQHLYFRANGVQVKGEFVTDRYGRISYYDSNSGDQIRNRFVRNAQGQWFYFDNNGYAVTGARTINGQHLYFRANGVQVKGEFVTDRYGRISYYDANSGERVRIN

[4] = target: T2, Glucosyltransferase-SI (Streptococcus mutans serotype c (strain ATCC 700610 / UA159)) (UniProt P13470); assay: Inhibition of GtfC in Streptococcus mutans UA159 assessed as reduction in glucans level by Coomassie blue dye based SDS-PAGE analysis
T2 sequence (whole entry): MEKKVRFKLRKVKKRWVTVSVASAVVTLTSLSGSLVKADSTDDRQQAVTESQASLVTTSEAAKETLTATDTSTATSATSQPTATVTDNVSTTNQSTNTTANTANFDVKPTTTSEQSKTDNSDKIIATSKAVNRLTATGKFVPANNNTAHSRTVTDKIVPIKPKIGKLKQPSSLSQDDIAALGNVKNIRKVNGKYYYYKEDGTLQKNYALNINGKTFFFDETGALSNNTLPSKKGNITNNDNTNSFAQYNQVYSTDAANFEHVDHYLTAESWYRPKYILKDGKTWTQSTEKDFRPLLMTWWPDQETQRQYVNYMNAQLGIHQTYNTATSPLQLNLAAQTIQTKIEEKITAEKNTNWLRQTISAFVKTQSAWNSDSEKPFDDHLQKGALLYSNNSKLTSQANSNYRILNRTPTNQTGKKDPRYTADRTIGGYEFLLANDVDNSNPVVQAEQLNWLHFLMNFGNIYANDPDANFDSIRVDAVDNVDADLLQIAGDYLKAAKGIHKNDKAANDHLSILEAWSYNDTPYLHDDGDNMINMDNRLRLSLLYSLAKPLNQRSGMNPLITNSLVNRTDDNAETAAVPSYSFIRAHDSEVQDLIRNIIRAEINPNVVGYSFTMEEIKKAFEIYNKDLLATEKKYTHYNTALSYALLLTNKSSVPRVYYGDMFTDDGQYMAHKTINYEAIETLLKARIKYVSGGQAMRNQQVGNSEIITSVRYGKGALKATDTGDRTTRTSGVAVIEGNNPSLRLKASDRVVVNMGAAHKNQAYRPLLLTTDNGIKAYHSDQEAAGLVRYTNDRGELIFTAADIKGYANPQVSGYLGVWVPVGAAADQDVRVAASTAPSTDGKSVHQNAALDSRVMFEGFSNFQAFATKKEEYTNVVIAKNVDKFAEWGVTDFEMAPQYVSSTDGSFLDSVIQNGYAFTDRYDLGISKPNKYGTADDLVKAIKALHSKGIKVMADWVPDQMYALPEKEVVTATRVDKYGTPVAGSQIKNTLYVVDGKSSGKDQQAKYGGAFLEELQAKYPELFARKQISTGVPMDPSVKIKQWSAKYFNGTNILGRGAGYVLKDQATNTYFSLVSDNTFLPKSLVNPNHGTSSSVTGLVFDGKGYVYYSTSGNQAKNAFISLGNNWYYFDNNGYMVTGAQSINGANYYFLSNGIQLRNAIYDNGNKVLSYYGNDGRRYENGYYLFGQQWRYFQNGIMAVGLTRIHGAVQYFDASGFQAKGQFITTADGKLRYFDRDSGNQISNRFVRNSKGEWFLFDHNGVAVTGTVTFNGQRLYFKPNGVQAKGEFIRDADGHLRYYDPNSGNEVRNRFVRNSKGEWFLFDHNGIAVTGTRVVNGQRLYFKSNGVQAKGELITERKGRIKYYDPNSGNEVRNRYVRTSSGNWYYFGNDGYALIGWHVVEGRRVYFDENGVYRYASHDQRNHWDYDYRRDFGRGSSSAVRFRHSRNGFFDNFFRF

Compound	solubility [1] [mg/mL]	IC50 [2] [µM]	inhibition [3]	inhibition [4]
NC(=O)c1ccccc1NC(=O)c1cnc2ccccc2c1	0.005 (≈ 17.2 µM)	15.3	Active	Active
O=C(c1ccc(F)cc1)c1ccc(-c2[nH]c(-c3ccc([N+](=O)[O-])cc3O)nc2-c2ccccc2)cc1	–	–	Active	Active
NC(=O)c1cccc(NC(=O)c2cnc3ccccc3c2)c1	< 0.005	8.6	Active	Active
CC(C)(C)OC(=O)NCc1ccccc1NC(=O)c1cnc2ccccc2c1	0.015 (≈ 39.7 µM)	52.8	Active	Active
CC(C)(C)OC(=O)NCc1ccccc1NC(=O)c1cc2cc([N+](=O)[O-])ccc2s1	< 0.005	51.5	Active	Active
COC(=O)c1ccc(NC(=O)c2cc3cc([N+](=O)[O-])ccc3s2)cc1	0.01 (≈ 28.1 µM)	9.6	Active	Active
NC(=O)c1ccccc1NC(=O)c1cc2cc([N+](=O)[O-])ccc2s1	0.01 (≈ 29.3 µM)	16.7	Active	Active
